Experimental data: patent US4994617A, “Aminoalcohols, their preparation process and their applications, particularly in therapeutics” (Jouveinal S.A., priority 1986, dated 1991)

Experiments:
[1] = test system: mice; experiment: tail hanging test, activity on the S.N.C. (central nervous system), mice, oral; assay type: in vivo, mouse; settings: 1 hour before the test; for change in vivo at 32 mg/kg / change in vivo at 128 mg/kg: Mus musculus, po, 1 h, read-out: S.N.C.: Hanging test, activity percentages compared with the controls
Protocol: This activity was investigated on mice using the tail hanging test in accordance with the procedure described by Thierry et al. (Behavioral and Neural Biology, 1984, 41, 180-189), which was proposed as a model for the animal for the selection of products active on the S.N.C.
The tests were carried out on batches of 10 male mice for each product and at each dose, the substances to be investigated being administered orally in aqueous solution 1 hour before the test, a control batch only receiving distilled water.
The results of the tests are given in activity percentages compared with the controls.

[2] = test system: mice; experiment: acetic acid test, analgesic activity, mice, oral; assay type: in vivo, mouse; settings: for Analgesia: Acetic acid test, percentages of analgesed animals: Dose: 30 mg/kg, 30 minutes before acetic acid injection; for ED50: Mus musculus, read-out: Analgesia: Acetic acid test, ED50 (dose causing analgesia of 50% of the animals)
Protocol: This was investigated and determined on mice using the acetic acid test according to a procedure derived from that of Troster R. (Fed. Proc. 1959, 18, 412).
20 hours prior to the test, the animals were starved of food and drink. This was followed by the oral administration in aqueous solution of the product to be investigated at a rate of 2 ml of solution per 100 g of body weight, which was followed 30 minutes later by an intraperitoneal injection of 0.25 ml of 0.25% acetic acid solution (wt/v) maintained at 37° C. 30 minutes after this injection, the number of abdominal cramps suffered by the animals were counted for a period of 10 minutes.
The animals were considered to be analgesed when the number of cramps suffered was less than half the mean value of the cramps experienced by the controls.
The products were administered at a dose rate of 30 mg-kg^-1 and the results are given in percentages of analgesed animals. For certain products, several doses were administered and the calculation of their ED50 (dose causing analgesia of 50% of the animals) was determined in log probability units.

| SMILES | change in vivo at 32 mg/kg ([1]; Dose: 32 mg/kg) [%] | change in vivo at 128 mg/kg ([1]; Dose: 128 mg/kg) [%] | Analgesia: Acetic acid test, percentages of analgesed animals [2] [%] | further results |
| --- | --- | --- | --- | --- |
| CN(C)C(C)(CO)Cc1ccc(Cl)c(Cl)c1 (racemic) [JO 1017, (±) 2-methyl-2-dimethylamino-3-(3,4-dichlorophenyl)-propanol] | -65 | -85 | -86 | ED50 [2]: 14 mg/kg |
| CC(N)(CO)Cc1ccc(Cl)c(Cl)c1 (racemic) [JO 1275, (±) 2-methyl-2-amino-3-(3,4-dichlorophenyl)-propanol] | -78 | -86 | -43 | – |
| CNC(C)(CO)Cc1ccc(Cl)c(Cl)c1 (racemic) [JO 1276, (±) 2-methyl-2-methylamino-3-(3,4-dichlorophenyl)-propanol] | -58 | -83 | -86 | ED50 [2]: 8.5 mg/kg |
| CCNC(C)(CO)Cc1ccc(Cl)c(Cl)c1 (racemic) [JO 1277, (±) 2-methyl-2-ethylamino-3-(3,4-dichlorophenyl)-propanol] | – | – | -43 | – |
| CCN(C)C(C)(CO)Cc1ccc(Cl)c(Cl)c1 (racemic) [JO 1291, (±) 2-methyl-2-(N-methyl, N-ethyl)-amino-3-(3,4-dichlorophenyl)-propanol] | -58 | – | -38 | – |
| CN(CCc1ccccc1)C(C)(CO)Cc1ccc(Cl)c(Cl)c1 (racemic) [JO 1457, (±) 2-methyl-2-[N-methyl, N-(2-phenyl)-ethyl]-amino-3-(3,4-dichlorophenyl)-propanol] | -60 | – | – | – |
| CCCCCC(N)(CO)Cc1ccc(Cl)c(Cl)c1 (racemic) [JO 1562, (±) 2-pentyl-2-amino-3 (3,4-dichlorophenyl)-propanol] | -73 | – | – | – |
| CCCCCC(CO)(Cc1ccc(Cl)c(Cl)c1)NC (racemic) [JO 1563, (±) 2-penthyl-2-methylamino-3-(3,4-dichlorophenyl)-propanol] | -49 | -71 | – | – |
| CCCCCC(CO)(Cc1ccc(Cl)c(Cl)c1)N(C)C (racemic) [JO 1564, (±) 2-pentyl-2-dimethylamino-3-(3,4-dichlorophenyl)-propanol] | – | -74 | – | – |
| CC(C)C(N)(CO)Cc1ccc(Cl)c(Cl)c1 (racemic) [JO 1579, (±) 2-isopropyl-2-amino-3 (3,4-dichlorophenyl)-propanol] | – | -67 | – | – |
| C=CCN(C)C(C)(CO)Cc1ccc(Cl)c(Cl)c1 (racemic) [JO 1581, (±) 21-methyl-2-(N-methyl, N-allyl)-amino-3-(3,4-dichlorophenyl)-propanol] | – | -61 | – | – |
| CN(C)C(C)(CO)Cc1ccc(Cl)c(Cl)c1 (single isomer, unassigned; (+)) [JO 1240, (+) 2-methyl-2-dimethylamino-3-(3,4-dichlorphenyl)-propanol] | – | – | – | S.N.C.: Hanging test, activity percentages compared with the controls ([1]; Dose: 32 mg/kg, 32 mg/kg): -77%; S.N.C.: Hanging test, activity percentages compared with the controls ([1]; Dose: 128 mg/kg, 128 mg/kg): -85% |
| CC(N)(CO)Cc1ccc(Cl)c(Cl)c1 (single isomer, unassigned; (+)) [JO 1307, (+) 2-methyl-2-amino-3-(3,4-dichlorophenyl)-propanol] | – | – | -50 | – |
| CNC(C)(CO)Cc1ccc(Cl)c(Cl)c1 (single isomer, unassigned; (+)) [JO 1308, (+) 2-methyl-2-methylamino-3-(3,4-dichlorophenyl)-propanol] | – | – | -88 | – |
| CN(C)C(C)(CO)Cc1ccc(Cl)c(Cl)c1 (single isomer, unassigned; (-)) [JO 1239, (-) 2-methyl-2-dimethylamino-3-(3,4-dichlorophenyl)-propanol] | – | – | -86 | S.N.C.: Hanging test, activity percentages compared with the controls ([1]; Dose: 32 mg/kg, 32 mg/kg): -74%; S.N.C.: Hanging test, activity percentages compared with the controls ([1]; Dose: 128 mg/kg, 128 mg/kg): -64%; ED50 [2]: 11 mg/kg |
| CCNC(C)(CO)Cc1ccc(Cl)c(Cl)c1 (single isomer, unassigned; (-)) [JO 1296, (-) 2-methyl-2-ethylamino-3-(3,4-dichlorophenyl)-propanol] | – | – | -38 | – |
| CN(C)CCCN1c2ccccc2CCc2ccc(Cl)cc21 [Clomipramine, clomipramine, reference compound] | -49 | -54 | – | – |
